Results taken from patent US10238713B2, “Cyclic tetrapeptides and therapeutic applications thereof” (LODZ UNIVERSITY OF TECHNOLOGY, priority 2010, dated 2019).
Non-standard residues stand in square brackets, D forms with d. Residues, ends and D or L forms follow the SMILES beside them. Oic = O=C(O)[C@@H]1C[C@@H]2CCCC[C@@H]2N1; Phe(4-Cl) = N[C@@H](Cc1ccc(Cl)cc1)C(=O)O; Phe(4-Me) = Cc1ccc(C[C@H](N)C(=O)O)cc1; 2Nal = N[C@@H](Cc1ccc2ccccc2c1)C(=O)O; β3hY = N[C@H](CC(=O)O)Cc1ccc(O)cc1; Hyp = O=C(O)[C@@H]1C[C@@H](O)CN1; 3Pal = N[C@@H](Cc1cccnc1)C(=O)O; Tic = O=C(O)[C@@H]1Cc2ccccc2CN1; β3hF = N[C@H](CC(=O)O)Cc1ccccc1; ΔPro = O=C(O)[C@@H]1C=CCN1

Assays:
[1] = system: mice, carrageenan-induced foot pad edema; experiment: Carrageenan-induced foot-pad edema test; assay type: in vivo, mouse; conditions: 4 h after carrageenan; peptides 250 μg i.p., DEX 25 μg i.p., 30 min before; FIGS. 17A-17C
Description: (§1) In this and the air-pouch test, 1.5 mg peptide was dissolved in 300 μl of DMSO, then in 0.9% NaCl to achieve the desired dose (250 μg/0.2 ml or 100 μg/0.2 ml). Carrageenan (Sigma) was dissolved in 0.9% aqueous NaCl (overnight). 50 μl of 2% carrageenan solution was injected intradermally into hind foot pads. The peptides were given in a single 250 μg dose (0.2 ml) per mouse intraperitoneally (i.p.), 30 min before carrageenan administration. Dexamethasone (DEX) (Dexaven, Polfa, Poland), a reference drug, was given i.p. in dose 25 μg per mouse. Control mice were administered i.p. appropriately diluted solvent (DMSO in aqueous NaCl) instead of peptides. The foot pads of “background” (BG) mice were injected with 50 μl of 0.9% aqueous NaCl. Foot pad edema was measured with a spring caliper, 2 h, 3 h and 4 h after administration of carrageenan. The results are presented in FIGS. 17A, 17B and 17C as mean values of the antigen-specific increase of the foot pad thickness measured in 5 mice in each experimental group and expressed in mm ±SE (only results from measurements 4 h following administration of carrageenan are presented in figures). Statistics: FIG. 17A: Control vs: DEX P=0.0001; 4B8M P=0.0001; P25 NS (P=1.0000); P28 NS (P=1.0000); P31 NS (P=0.0528); P35 P=0.0008 (ANOVA of Kruskal-Wallis); FIG. 17B: Statistics: Control vs: P22 NS (P=1.0000); P26 NS (P=1.0000); P27 P=0.0050; P30 P=0.0004; P33-b NS (P=1.0000); SP00-b P=0.0001; P00S-b NS (P=1.0000) (ANOVA of Kruskal-Wallis); FIG. 17C: Statistics: Control vs: P21 P=0.0147; P23-2 P=0.0083; P24 P=0.0001; P29 NS (P=0.9999); P32 P=0.0001; P33 NS (P=0.6806); P34 NS (P=0.1920) (ANOVA).

human PBMC = experiment: Toxicity test: PBMC survival in 24 h culture (MTT); conditions: ANOVA, FIGS. 8A-8F (4B8M repeated per figure)
Description: (§2) PBMC were isolated by centrifugation on Ficoll-uropoline gradient (density 1.077 g/ml) (Lymphoprep; PAA Laboratories), at 800×g for 20 min at 4° C. The interphase cells, consisting of lymphocytes (20%) and monocytes (80%) were then washed three times with Hanks' medium and re-suspended in the culture medium at density of 2×10^6 cells/ml.
Appropriate dilutions of DMSO in RPMI 1640 medium were used as controls. Cell survival was determined by the MTT colorimetric method (Hansen et al., J. Immunol. Methods, 1989, pp. 203-210). The data are presented as a mean OD value from quadriplicate wells ±standard error (SE). The cultures “Control (−)” contained only cells in the culture medium.
The assay was performed per Hansen et al., J. Immunol. […] Briefly, 25 μl of MTT (5 mg/ml) stock solution was added per well at the end of cell incubation and the plates were incubated for 3 h in a cell culture incubator. Then, 100 μl of the extraction buffer (20% SDS with 50% DMF, pH 4.7) was added. After additional overnight incubation, the optical density was measured at 550 nm (Dynatech 5000).

[2] = system: PHA-induced proliferation of human peripheral blood mononuclear cells (PBMC); experiment: Proliferative response of PBMC to PHA (MTT); assay type: cell-based; conditions: four-day incubation, FIGS. 9A-9F
Description: as §2
The isolated PBMC were distributed into 96-well flat-bottom plates in 100 μl aliquots (2×10^5 cells/well). PHA was used at concentration of 5 μg/ml. The compounds were tested at concentrations of 1, 10 and 100 μg/ml. DMSO at appropriate dilutions served as control. After a four-day incubation in a cell culture incubator, the proliferative response of cells was determined by the colorimetric MTT method (Hansen et al., J. Immunol. Methods, 1989, pp. 203-210). The data are presented as a mean OD value from quadriplicate wells ±standard error (SE). The cultures “Control (−)” contained no mitogen (PHA). The cultures “Control (PHA)” contained PHA but not cyclic tetrapeptides.
Briefly, 25 μl of MTT (5 mg/ml) stock solution was added per well at the end of cell incubation and the plates were incubated for 3 h in a cell culture incubator. Then, 100 μl of the extraction buffer (20% SDS with 50% DMF, pH 4.7) was added. After additional overnight incubation, the optical density was measured at 550 nm (Dynatech 5000).

[3] = system: mice, carrageenan air pouch; experiment: Carrageenan air-pouch test (exudate cell number); assay type: in vivo, mouse; conditions: peptides 100 μg i.p. one hour before carrageenan, 24 h; FIGS. 18A-18B
Description: as §1
Air pouches were formed by subdermal injection into the dorsal region (in a halothane anesthesia) of 5 cm^3 of air (needle 23G x 11/4, 5 ml syringe). On day 3 the air pouches were given an additional 2 ml of air and an inflammatory process was elicited by an intra-pouch injection of 1% of carrageenan in 0.5 ml of 0.9% aqueous NaCl. The peptides were given i.p. at a dose of 100 μg one hour before carrageenan injection into the air pouch. The mice from the “background” (BG) group were given 0.9% aqueous NaCl i.p. and 0.9% aqueous NaCl into the air pouches. Control mice were given appropriately diluted DMSO i.p. and carrageenan into the air pouches. 24 h after carrageenan injection, the mice were sacrificed by cervical dislocation, the air pouches were supplemented with 1 ml of 0.9% aqueous NaCl and the exudates from the air pouches were aspirated using a syringe. The exudates were diluted with 0.9% aqueous NaCl and the cells were counted in a Bürker hemocytometer. Data are presented in FIGS. 18A and 18B as the mean values from 10 mice/group (cell number×10^6 per mouse) ±SE. Then the cells were centrifuged and 0.1 ml of the supernatant was saved for TNF-α determination (see Determination of TNF-α activity, above). The cell pellets were used to perform smears on microscopic glasses, which were stained with Giemsa and May-Grünwald reagents for evaluation of mast cell degranulation. Cell analysis was performed by a histologist using a light microscope and 1000× magnification. The content of intact and degranulated mast cells is given in percentage (mean values from 10 mice/group) ±SE. Statistics: FIG. 18A: BG vs Control P=0.0000; Control vs: DEX P=0.0034; 4B8M P=0.0005; P22 NS (P=0.7275); P26 P=0.0032; P27 NS (P=0.0659); P35 NS (P=1.0000) (ANOVA of Kruskal-Wallis); FIG. 18B: Control vs: P21 NS (P=0.322); P23-2 P=0.0020; P24 P=0.0001; P25 P=0.0418; P28 NS (P=0.3502); P29 NS (P=0.0582); P30 P=0.0006; P31 P=0.0078; P32 P=0.0340; P33 NS (P=0.9993); P34 NS (p=0.0566) (ANOVA).

| SMILES | foot pad edema (increase of foot pad thickness), P vs Control [1] | PBMC survival, P vs DMSO at appropriate dilution (human PBMC; 10 μg/ml) | PBMC survival, P vs DMSO at appropriate dilution (human PBMC; 100 μg/ml) | PHA-induced PBMC proliferation, P vs DMSO at appropriate dilution ([2]; 10 μg/ml) | PHA-induced PBMC proliferation, P vs DMSO at appropriate dilution ([2]; 100 μg/ml) | air pouch exudate cell number, P vs Control [3] |
| --- | --- | --- | --- | --- | --- | --- |
| Cc1ccc(C[C@@H]2NC(=O)C[C@H](Cc3ccccc3)NC(=O)[C@@H]3CCCN3C(=O)[C@@H]3CCCN3C2=O)cc1 [I-Z] (cyclo(PP[β3hF][Phe(4-Me)])) | 0.0050 | 0.9997 | 0.0236 | 0.9121 | 0.8195 | 0.0659 |
| O=C1C[C@H](Cc2ccccc2)NC(=O)[C@@H]2Cc3ccccc3CN2C(=O)[C@@H]2CCCN2C(=O)[C@H](Cc2ccccc2)N1 [I-AB] (cyclo(FP[Tic][β3hF])) | 0.9999 | 0.8876 | 0.0001 | 1.0000 | 0.0001 | 0.0582 |
| O=C1C[C@H](Cc2ccccc2)NC(=O)[C@@H]2CCCN2C(=O)[C@@H]2CCCN2C(=O)[C@H](Cc2ccc(Cl)cc2)N1 [I-V] (cyclo(PP[β3hF][Phe(4-Cl)])) | 0.0001 | 0.9999 | 0.1122 | 1.0000 | 0.4681 | 0.0001 |
| O=C1C[C@H](Cc2ccc(O)cc2)NC(=O)[C@@H]2CCCN2C(=O)[C@@H]2CCCN2C(=O)[C@H](Cc2ccccc2)N1 [I-AG] (cyclo(FPP[β3hY])) | 0.6806 | 0.0001 | 0.0001 | 1.0000 | 1.0000 | 0.9993 |
| O=C1C[C@H](Cc2ccccc2)NC(=O)[C@@H]2CCCN2C(=O)[C@@H]2CCCN2C(=O)[C@H](Cc2ccc3ccccc3c2)N1 [I-U] (cyclo([2Nal]PP[β3hF])) | 0.0083 | 0.9972 | 0.4949 | 1.0000 | 0.0002 | 0.0020 |
| O=C1C[C@H](Cc2ccccc2)NC(=O)[C@@H]2CCCN2C(=O)[C@@H]2CCCN2C(=O)[C@H](Cc2cccnc2)N1 [I-AC] (cyclo([3Pal]PP[β3hF])) | 0.0004 | 0.8178 | 0.9882 | 0.9850 | 0.9871 | 0.0006 |
| O=C1C[C@H](Cc2ccccc2)NC(=O)[C@@H]2CCCN2C(=O)[C@@H]2C=CCN2C(=O)[C@H](Cc2ccccc2)N1 [I-S] (cyclo(F[ΔPro]P[β3hF])) | 1.0000 | 0.9753 | 1.0000 | 0.0275 | 0.0001 | 0.7275 |
| O=C1C[C@H](Cc2ccccc2)NC(=O)[C@@H]2CCCN2C(=O)[C@@H]2C[C@@H]3CCCC[C@@H]3N2C(=O)[C@H](Cc2ccccc2)N1 [I-AD] (cyclo(F[Oic]P[β3hF])) | 0.0528 | 1.0000 | 0.9531 |  | 1.0000 | 0.0078 |
| O=C1C[C@H](Cc2ccccc2)NC(=O)[C@@H]2CCCN2C(=O)[C@@H]2C[C@@H](O)CN2C(=O)[C@H](Cc2ccccc2)N1 [I-R] (cyclo(F[Hyp]P[β3hF])) | 0.0147 | 0.6250 | 0.0019 | 0.7122 | 0.0436 | 0.322 |
| O=C1C[C@H](Cc2ccccc2)NC(=O)[C@@H]2C[C@@H]3CCCC[C@@H]3N2C(=O)[C@@H]2CCCN2C(=O)[C@H](Cc2ccccc2)N1 [I-Y] (cyclo(FP[Oic][β3hF])) | 1.0000 | 0.9992 | 0.0001 | 0.0001 | 0.0001 | 0.0032 |
| C[C@@H]1C[C@H]2[C@@H]3CCC4=CC(=O)C=C[C@]4(C)[C@@]3(F)[C@@H](O)C[C@]2(C)[C@@]1(O)C(=O)CO [DEX, dexamethasone, reference compound] | 0.0001 |  |  |  |  | 0.0034 |
| O=C1N[C@@H](Cc2ccccc2)CC(=O)N2Cc3ccccc3C[C@H]2C(=O)N2CCC[C@H]2C(=O)N2CCC[C@@H]12 [I-AA] (cyclo(PP[β3hF][Tic])) | 1.0000 | 0.9997 | 0.9978 |  | 1.0000 | 0.3502 |
